These results are taken from patent US20140309419A1, “METHOD FOR ENHANCING THE THERMAL STABILITY OF IONIC COMPOUNDS” (Danmarks Tekniske Universite, priority 2011, published 2014).

Data set [1] in a line: Thermal stability by TGA, supported vs. unsupported, evaluation method not marked. The procedure:
To test for such influence, adsorption experiments with butylmethylimidazolium acetate [BMIM][OAc] on four different porous silica types was carried out (FIG. 7a, 7b). The silicas had the following pore diameters: PG2000 (pore diameter 2000 Å), PG500 (pore diameter 500 Å), PG75 (pore diameter 75 Å) and MCM-41 (pore diameter 50 Å).
The silicas had the following pore diameters: PG2000 (pore diameter 2000 Å), PG500 (pore diameter 500 Å) and PG75 (pore diameter 75 Å).
Thermal stability was measured by using thermogravimetric analysis (TGA), with isocratic heating at 5° C. min^−1 under an inert nitrogen and/or dried air atmosphere. The decomposition temperatures were determined from both the T5% onset (onset temperature for 5% decomposition) in an isocratic TGA experiment, and from the inflection point (temperature at the inflection point of TGA curve, which indicates the point where the degradation rate is maximum). For T5% onset measurements, thermal stability was determined in a Mettler-Toledo Star^e TGA/DSC unit by heating from 25° C. to 800° C. with a heating rate of 5° C./min under nitrogen. For inflection point measurements, thermal stability was determined using a TA2950 TGA unit by heating from 25° C. to 800° C. with a heating rate of 5° C./min under dried air.

The nature of data set [2]: Thermal stability by TGA, inflection point method (TA2950 TGA, 5° C./min, dried air). Particulars: not supported/neat. Format: physicochemical. From the text: (§1) The term “upper operating temperature” as used herein refers to the highest temperature to which the ionic compound can be heated without undergoing thermal degradation. This temperature is usually and routinely measured by Thermo Gravimetric Analysis (TGA) and/or Differential Scanning calorimetry (DSC).

The nature of data set [3]: Thermal stability by TGA, T5% onset method (Mettler-Toledo TGA/DSC, 5° C./min, nitrogen). Format: physicochemical. Particulars: not supported/neat.
Text: as §1

The mark [4] stands for this setting: 10% (wt/wt) on PG75 silica (pore diameter 75 Å).
Setting [5] is: 10% (wt/wt) on PG500 silica (pore diameter 500 Å).
The mark [6] stands for this setting: 10% (wt/wt) on PG2000 silica (pore diameter 2000 Å).

Marks after values point to notes of the source that are not given here.

Regarding `CCCCn1cc[n+](C)c1.[Cl-]` [[BMIM][Cl], butylmethylimidazolium chloride], the “enhancement of thermal stability vs. unsupported” value in data set [1] (setting [4]), in data set [1] (setting [5]) and in data set [1] (setting [6]) was “no enhancement of thermal stability” throughout. On to `CCCCC(CC)COC(=O)CC(C(=O)OCC(CC)CCCC)S(=O)(=O)O` (centres unmarked) [Dioctylsulfosuccinic Acid [3], Dioctylsulfosuccinic Acid], for which the “Thermal Stability (inflection point)” value in data set [2] was 161.86^b ° C.

Take `CC(C)Cc1ccc(C(C)C(=O)O)cc1` (centres unmarked) [Ibuprofene (free acid), Ibuprofene]: the “Thermal Stability (T5% onset)” value in data set [3] is 154.7^a ° C. Consider `CC[N+](CC)(CC)CC.O=C(O)CNCP(=O)([O-])O` [Tetraethylammonium Glyphosate [5], Tetraethylammonium Glyphosate], for which the “Thermal Stability (inflection point)” value in data set [2] is reported as 149.76^b ° C. Take `CCCCCCCCCCCCCCCC[N+](C)(C)C.Nc1nc2c(ncn2COCCO)c(=O)[n-]1` [Trimethylhexadecylammonium acyclovir [2], Trimethylhexadecylammonium Acyclovir]: the “Thermal Stability (inflection point)” value in data set [2] was 188.60^b ° C. For `CC(=O)[O-].CCCCn1cc[n+](C)c1` [[BMIM][OAc], butylmethylimidazolium acetate], the “enhancement of thermal stability vs. unsupported” value in data set [1] (10% (wt/wt) on MCM-41 silica (pore diameter 50 Å)) is “significant enhancement of the thermal stability”; in data set [1] (setting [4]), “significant enhancement of the thermal stability”; in data set [1] (setting [5]) it was “no enhancement of thermal stability”; in data set [1] (setting [6]), “no enhancement of thermal stability”.
